One substance from patent US20220267444A1, “ANTI-PD-1 ANTIBODY AND MEDICAL USE THEREOF” (CTTQ-AKESO (SHANGHAI) BIOMED. TECH. CO., LTD., priority 2019, published 2022) can be followed below.

For experiment [1], the system named is MSI-H/dMMR tumor SW48 cells. Briefly: Raji-PDL1, PBMC and SW48 co-culture with antibodies and anlotinib, IL-2 ELISA. To be noted: 3 days, compared to anti-HEL antibody. The class given is cell-based, human. The protocol:
SW48 is a human colorectal cancer cell line and is identified with MSI-H/dMMR phenotype (Branch P et al., (1995), Cancer Res, 55(11): 2304-2309). It was used for detecting the enhanced immune cell response to tumor of MSI-H/dMMR phenotype by 14C12H1L1(hG1TM).
PBMCs were isolated from healthy human peripheral blood according to the Ficoll-Paque™ Plus reagent instruction, and the isolated PBMCs were counted and frozen. Raji-PDL1 cells were cultured in RPMI 1640+10% FBS complete medium, and SW48 cells (purchased from GuangZhou Jennio Biotech Co., Ltd.) were cultured in DMEM+10% FBS complete medium. PBMCs were thawed and activated with 0.5 μg/mL SEB for two days. On the day of the experiment, Raji-PDL1 cells were treated with 2 μg/mL MMC for 1 h. SEB-activated PBMCs and MMC-treated Raji-PDL1 cells were collected, washed twice with PBS, resuspended in RPMI 1640+10% FBS complete medium and counted. Raji-PDL1 and PBMC cells were seeded on 96-well plates at 1×10^5 cells/well. SW48 cells in logarithmic growth phase were collected and seeded on the 96-well plate at 2×10^5 cells/well. The diluted antibody and anlotinib was added according to the study design. The mixture was mixed evenly and incubated in a 5% CO2 incubator at 37° C. for 3 days. After 3 days, the cell culture supernatant was collected and tested for IL-2 according to ELISA KIT instruction. […]

The test system of experiment [2] is human nasopharyngeal cancer CNE-2Z cells. As to the kind of experiment: Raji-PDL1, PBMC and CNE-2Z co-culture with antibodies and anlotinib, IL-2 ELISA. Type of experiment: cell-based. The note with it: CNE-2Z co-culture, 3 days; compared to the anti-HEL antibody and the anlotinib monotherapies. The protocol: PBMCs were isolated from healthy human peripheral blood according to the Ficoll-Paque™ Plus reagent instruction, and the isolated PBMCs were counted and frozen. Raji-PDL1 and CNE-2Z cells (purchased from GuangZhou Jennio Biotech Co., Ltd.) were cultured in RPMI 1640+10% FBS complete medium. PBMCs were thawed and activated with 0.5 μg/mL SEB for two days. On the day of the experiment, Raji-PDL1 cells were treated with 2 μg/mL MMC for 1 h. SEB-activated PBMCs and MMC-treated Raji-PDL1 cells were collected, washed twice with PBS, resuspended in RPMI 1640+10% FBS complete medium and counted. Raji-PDL1 and PBMC cells were seeded on 96-well plates at 1×10^5 cells/well. CNE-2Z cells in logarithmic growth phase were collected and seeded on the 96-well plate at 3×10^4 cells/well. The diluted antibodies and anlotinib were added according to the study design. The mixture was mixed evenly and incubated in a 5% CO2 incubator at 37° C. for 3 days. After 3 days, the cell culture supernatant was collected and tested for IL-2 according to ELISA KIT instruction. The media in this experiment were all 10% FBS+RPMI 1640.
(In general: ELISA stands for enzyme-linked immunosorbent assay.)

Experiment [3] has as its system human colorectal cancer SW837 cells. Briefly: Raji-PDL1, PBMC and SW837 co-culture, IL-2 ELISA. The class given is cell-based. The note with it: 3 days. The protocol:
SW837 is a human colorectal cancer cell line of non-MSI-H/dMMR (i.e., MSS) phenotype (Guo J et al., Cancer Res., 2011; 71(8):2978-2987), and was used for detecting the enhanced immune cell response to tumor of non-MSI-H/dMMR (i.e., MSS) phenotype by 14C12H1L1(hG1TM) in this example.
PBMCs were isolated from healthy human peripheral blood according to the Ficoll-Paque™ Plus reagent instruction, and the isolated PBMCs were counted and frozen. Raji-PDL1 cells were cultured in RPMI 1640+10% FBS complete medium, and SW837 cells (purchased from Shanghai Honsun Biological Technology Co., Ltd) were cultured in 10% FBS+Leibovitz's L-15 complete medium (purchased from Gibco). PBMCs were thawed and activated with 0.5 μg/mL SEB for two days. On the day of the experiment, Raji-PDL1 cells were treated with 2 μg/mL MMC for 1 h. SEB-activated PBMCs and MMC-treated Raji-PDL1 cells were collected, washed twice with PBS, resuspended in RPMI 1640+10% FBS complete medium and counted. Raji-PDL1 and PBMC cells were seeded on 96-well plates at 1×10^5 cells/well. SW837 cells in logarithmic growth phase were collected and seeded on the 96-well plate at 5×10^4 cells/well. The diluted antibody was added according to the study design. The mixture was mixed evenly and incubated in a 5% CO2 incubator at 37° C. for 3 days. […]

In the next experiment the test system is CHO-K1-PD1 cells. Briefly: Antibody-mediated phagocytic activity (ADCP) of murine macrophages on CHO-K1-PD1. The class given is cell-based, mouse. To be noted: CHO-K1-PD1-CFSE target cells. How it is done:
To detect the antibody dependent cellular phagoxytosis (ADCP) activity, murine macrophages were used as effector cells and cell lines overexpressing PD1 were used as target cells. The femoral bone marrow of Blab/c mice (purchased from Guangdong Medical Laboratory Animal Center) was first aseptically collected and lysed by erythrocyte lysis buffer on ice for 5 min. The lysis was terminated with DMEM complete medium (containing 10% FBS), and the lysate was centrifuged at 1000 rpm and washed twice. The cell pellet was resuspended in 10 mL of DMEM complete medium and M-CSF were added at a working concentration of 100 ng/mL. […] The supernatant was discarded and the cells were suspended in DMEM complete medium (containing 10% FBS) and counted. […] CHO-K1-PD1 cells (a CHO-K1 cell line overexpressing PD1) were centrifuged at 170×g for 5 min, washed once with PBS, resuspended and counted. The viability was determined. […]
The test antibodies were diluted in DMEM complete medium to 20, 2 and 0.2 μg/mL (the working concentrations were 10, 1 and 0.1 μg/mL). […] The cells were transferred to loading tube and analyzed by BD FACS Calibur flow cytometer. […] The phagocytosis rate was determined as the ratio of the number of double positive cells to the number of APC positive cells, and the antibody-mediated ADCP activity was evaluated. […]

For the substance “nivolumab: anti-PD-1 antibody nivolumab (trade name: Opdivo), purchased from Bristol-Myers Squibb [reference compound]”, in experiment [1], the “immune response of immune cells (secretion level of IL-2)” value is on record as “significantly increased secretion level of IL-2”. In experiment [2], the “immune response of immune cells (IL-2 secretion level)” value was “significantly increased IL-2 secretion level”. For the same substance, the “immune response of immune cells (IL-2)” value in experiment [3] is “significantly enhanced the immune response”. For the same substance, the ADCP effect result in the experiment with CHO-K1-PD1 cells was “have ADCP effects”. The “phagocytic rate relative to that of the isotype control anti-HEL antibody” value with CHO-K1-PD1 cells (at the same concentration, 2 h, flow cytometry) was 4.26 times.
